{"source": "patent US20240208950A1", "about": "“COMPOSITIONS AND METHODS FOR TREATMENT OF CERVICAL AND OVARIAN CANCER” (SOUTH DAKOTA BOARD OF REGENTS, priority 2021, published 2024)", "key": {"CaSki cells": {"test_system": "CaSki cells", "assay": "Cell invasion assay (Matrigel / Boyden chamber), CaSki", "format": "cell-based, human", "conditions": "24 hours", "procedure": "FIGS. 8A and 8B show the effect of ORM-Br on invasion of CaSki (FIG. 8A) and SiHa (FIG. 8B) cell lines in Boyden chamber and xCELLigence assay. The images represent the invaded cells of control and ORM-Br-treated CaSki and SiHa cells as determined by Boyden Chamber kit. The magnification was at 20 for the images of FIGS. 8A and 8B.\nCell invasion assay was performed using BD Biocoat Matrigel Invasion Chambers (BD Biosciences, San Jose, CA, USA), as has been described in the art. Cells were treated with Br-ORM followed by incubation for 24 hours. Cells were fixed using methanol and were stained with crystal violet. […]\nFIG. 14. […] Effect of Br-ORM on cell migration of cervical cancer cells as determined by agarose bead (FIG. 14A), scratch wound healing (FIG. 14B), and Boyden chamber assay (FIG. 14C). […] Closure of wound was determined and photographed using phase contrast microscopy. […] Bar graph represent the quantification of migrated CaSki cells of control and Br-ORM treated groups (FIG. 14C(ii)). […] Effect of Br-ORM treatment on invasion of CaSki cells as determined by a commercially available kit (BD Biosciences) as described in materials and methods. In brief, 24 hours post-treatment of Br-ORM, invaded cells were fixed, stained and counted. […] Bar graph represent the quantification of invaded CaSki cells of control and Br-ORM treated groups (FIG. 14D(ii)). […]"}, "[1]": {"test_system": "cleaved PARP in CaSki cells", "assay": "Western blot for cleavage of PARP, CaSki", "format": "cell-based, human", "conditions": "24 hours", "procedure": "The effect of Br-ORM on protein expression in cervical cancer cells were determined by Western blot analysis by using specific antibodies.\nIt was observed that Br-ORM exerts potent growth inhibitory effects, so the effect of Br-ORM on apoptosis induction was further examined. Cervical cancer cells were treated with Br-ORM (10 μM) for 24 hours and the apoptosis inducing effect of Br-ORM was analyzed by Annexin V staining and Western blot analysis for cleavage in PARP protein.\nFIG. 13. Br-ORM decreases proliferation and colony formation of cervical cancer cells. FIG. 13A. Effect of Br-ORM on cell viability of CaSki cells (i) and SiHa cells (ii). Briefly, cervical cancer cells were seeded (2500) in each well of 96-well plate and after overnight incubation; cells were treated with indicated concentrations of Br-ORM for 24 hours. Cell viability was assessed by MTS assay. […] Bar graphs indicating quantification of colony formation in CaSki (i), and SiHa (ii) cells of cervical cancer with respect to vehicle control. […] Briefly, cervical cancer cells were treated with Br-ORM (10 μM) for 24 hours and the apoptosis inducing effect of Br-ORM was analyzed by Annexin V staining. […] The equal loading of protein in each lane was determined by probing the blots with β-actin antibody (FIG. 13F). […] Br-ORM arrests cell cycle in G1/S phase as determined by flow cytometry. […]"}}, "data": [{"compound": "COc1ccc2c(c1)OC(C)(C)C(c1ccc(Br)cc1)C2c1ccc(OCCN2CCCC2)cc1", "note": "(stereo not drawn) [ORM-Br]", "values": [{"measurement": "cell invasion", "setting": "CaSki cells", "value": "inhibits the invasion"}, {"measurement": "cell invasion", "setting": "CaSki cells; listed as Br-ORM", "value": "effectively inhibited invasion"}, {"measurement": "protein levels of cleaved PARP", "setting": "[1]", "value": "dose dependently enhanced the protein levels of cleaved PARP"}]}]}
